The values that follow come from article PMC8856561, “Pharmacological and genetic activation of cAMP synthesis disrupts cholesterol utilization in Mycobacterium tuberculosis” (PLoS Pathogens, 2022).

Series [1] relates to Mtb in murine macrophages. Nature of the series: Mtb replication in macrophages (intramacrophage EC50). Format: cell-based. Conditions: Mycobacterium tuberculosis, Macrophage.
Series [2] concerns Mtb. Nature of the series: microbe, parasite or virus in culture. The settings on record: Mycobacterium tuberculosis, cholesterol media. The series is classed as cell-based, Mycobacterium tuberculosis.
Series [3] deals with Mtb. As to the kind of experiment: microbe, parasite or virus in culture. The settings on record: Mycobacterium tuberculosis; read-out: 7H9 OADC EC50. The series is classed as cell-based.
Series [4] concerns Mtb. Nature of the series: microbe, parasite or virus in culture. The series is classed as cell-based. The settings on record: Mycobacterium tuberculosis; media with cholesterol and acetate.
Series [5] relates to Mtb. Nature of the series: Quantification of bacterial cAMP in Mtb. The series is classed as cell-based, Mycobacterium tuberculosis.
Series [6] concerns Mtb. Format: cell-based, Mycobacterium tuberculosis. The settings on record: for 14CO2 release from [4-14C]-cholesterol: 10 μM.
For series [7], the system named is Mtb. Format: cell-based, Mycobacterium tuberculosis. The settings on record: media containing fatty acid.
Series [8] has as its system Mtb. The series is classed as cell-based, Mycobacterium tuberculosis. Conditions: 10 μM.
The subject of series [9] is Erdman Mtb. As to the kind of experiment: Mouse infection, BALB/c. Format: in vivo, BALB/c mice.
Series [10] deals with Erdman Mtb. Nature of the series: Mouse infection, C3HeB/FeJ. The settings on record: 50 mg/kg oral once-daily weeks 4-8, intranasal infection. Format: in vivo, C3HeB/FeJ mice.
The conditions of series [11]: 0.98 µM, pH 7.2.
Protocol: Liver microsomal stability
(§1) Liver microsomes from mouse (Xenotech), human (Corning) rat (Xenotech) and dog (Xenotech)
(§2) were prepared in potassium phosphate buf fer (100 mM) pH 7. 2. Experimental compounds were
(§3) dissolved in DMSO (100%) to a stock concentration of 10 mmol. A working compound solution
(§4) was made by diluting 5 µL of compound stock into 495 µL of acetonitrile (100%) to the final
(§5) concentration of compound (100 µM) and acetonitrile (99%). Similarly, positive control
(§6) compounds (Testosterone, Dichlofenac, and Propafenone) were dissolved in DMSO (100% to a
(§7) stock concentration of 10 mM in DMSO, and were diluted with 495 µL of acetonitrile (100%) to
(§8) the final concentration of compound (100 µM) and acetonitrile (99%). NADPH•4Na was dissolved
(§9) into a 10 mM MgCl2 solution (10 unit/mL) generating as a 10x cofactor stock. Pre-warmed
(§10) incubation plates were filled with 445 µL potassium phosphate buffer and incubated for 10 min at
(§11) 37°C with constant shaking. Liver microsomes (54 µL) liver and NADPH stock (6 µL) were added
(§12) to the plates. Working solution of compounds (5 µL) was added into the incubation plates
(§13) containing microsomes and mixed thoroughly before incubating at 37°C for 60 min under constant
(§14) shaking at 100 rpm. Reactions were stopped by the addition of 100 µl cold acetonitrile (100%)
(§15) containing the internal standards tolbutamide (200 ng/mL) and labetalol (200 ng/mL). All plates
(§16) were shaken for 10 min, then centrifuged at 4000 rpm for 20 minutes at 4°C. The cell free
(§17) supernatant was transferred into HPLC water and mixed by shaking the plate for 10 min minutes
(§18) prior to metabolite quantification by LC-MS/MS a nalysis.
(§19) The equation of first order kinetics was used to calculate T1/2 and CLin t(mic ) (µL/min/mg):
Equation of first order kinetics:
(§20) <=@(#<S) X= Y<@Z[ \] #_⁄#‘ #<SZ[a[#$b cZ[@L<= <= ZL$S@<[=
𝐶𝐿 = 𝐶𝐿 ∙ #_ #<SZ[a[#La ∙ _ b<Y LZ
(§21) <=@(b<Y LZ) <=@(#<S) _ b<Y LZ D_ e[fg hL<_i@
(§22) T1/2 is half life and CLin t ( mic ) is the intrinsic clearance
(§23) CLin t ( mic ) = 0.693/half life/mg microsome protein per mL
(§24) CLin t(l iv e r) = CLin t ( mic ) * mg microsomal protein/g liver weight * g liver weight/kg body weight
Extraction ratio calculation
(§25) Extraction ratio (ER) = CLH/QH= CLint(liver) / (CLint(liver) + Qh)
Qh is Hepatic Blood Flow (mL/min/kg)
The conditions of series [12]: 0.98 µM, pH 7.2. The source holds these as a separate data set.
Protocol: Liver microsomal stability
as §1, §2, §3, §4, §5, §6, §7, §8, §9, §10, §11, §12, §13, §14, §15, §16, §17, §18, §19
Equation of first order kinetics:
as §20
𝐶𝐿 = 𝐶𝐿 ∙ #_ #<SZ[a[#La ∙ _ b<Y LZ
as §21, §22, §23, §24
Extraction ratio calculation
as §25
Qh is Hepatic Blood Flow (mL/min/kg)
In series [13] the test system is MKR strain of Mtb. Also on record: method as in PMID 33542438. The settings on record: infected macrophages ref 13; cited from earlier work.
The nature of series [14]: in vitro. The settings on record: human.
Series [15] is described as follows: in vitro. The settings on record: human. The source holds these as a separate data set.
The nature of series [16]: in vitro. The settings on record: CD-1, mouse, plasma.
Series [17] deals with CYP1A2, CYP2C9, CYP2C19, CYP2D6, CYP3A4. Nature of the series: in vitro. The settings on record: human, pH 7.2.
Series [18] is described as follows: physchem. Conditions: pH 6.8, aqueous buffer, kinetic from dmso stock.
Series [19] deals with hERG potassium channel (Homo sapiens, UniProt Q12809). Nature of the series: Manual patch clamp assay for hERG inhibition.
Sequence of hERG potassium channel (Q12809 whole entry): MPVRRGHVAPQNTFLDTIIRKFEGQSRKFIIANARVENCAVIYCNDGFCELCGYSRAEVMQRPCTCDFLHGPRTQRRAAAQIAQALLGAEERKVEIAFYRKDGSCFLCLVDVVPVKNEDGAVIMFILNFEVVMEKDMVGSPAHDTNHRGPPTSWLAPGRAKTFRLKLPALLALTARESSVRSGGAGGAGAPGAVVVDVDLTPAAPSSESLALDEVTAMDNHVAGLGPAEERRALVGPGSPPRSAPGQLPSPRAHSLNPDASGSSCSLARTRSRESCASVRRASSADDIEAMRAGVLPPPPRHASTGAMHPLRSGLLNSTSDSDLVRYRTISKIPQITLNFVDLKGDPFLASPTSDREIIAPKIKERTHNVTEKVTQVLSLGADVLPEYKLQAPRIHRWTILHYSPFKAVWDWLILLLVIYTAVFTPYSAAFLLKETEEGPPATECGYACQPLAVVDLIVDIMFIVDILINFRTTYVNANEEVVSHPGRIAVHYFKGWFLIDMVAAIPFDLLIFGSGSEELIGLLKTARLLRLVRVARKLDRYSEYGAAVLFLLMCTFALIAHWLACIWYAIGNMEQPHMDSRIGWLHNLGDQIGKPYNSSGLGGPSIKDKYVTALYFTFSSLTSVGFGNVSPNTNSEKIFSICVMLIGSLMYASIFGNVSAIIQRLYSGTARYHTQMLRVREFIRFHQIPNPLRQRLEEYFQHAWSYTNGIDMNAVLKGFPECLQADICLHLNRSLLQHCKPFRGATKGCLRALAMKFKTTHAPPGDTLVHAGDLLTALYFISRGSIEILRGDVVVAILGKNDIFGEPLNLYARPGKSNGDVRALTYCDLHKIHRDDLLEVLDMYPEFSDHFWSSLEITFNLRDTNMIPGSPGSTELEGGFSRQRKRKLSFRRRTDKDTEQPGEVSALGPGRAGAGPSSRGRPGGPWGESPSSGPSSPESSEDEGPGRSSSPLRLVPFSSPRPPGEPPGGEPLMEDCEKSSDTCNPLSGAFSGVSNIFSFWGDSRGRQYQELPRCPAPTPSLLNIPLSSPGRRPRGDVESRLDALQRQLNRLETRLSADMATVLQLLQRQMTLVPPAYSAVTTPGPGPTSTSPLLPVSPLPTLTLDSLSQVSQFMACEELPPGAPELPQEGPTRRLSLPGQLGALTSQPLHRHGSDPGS
For series [20] the following is noted: 0.98 µM, pH 7.2. The source holds these as a separate data set.
Protocol: Liver microsomal stability
as §1, §2, §3, §4, §5, §6, §7, §8, §9, §10, §11, §12, §13
(§26) shaking at 100 rpm. Reactions were stopped by the addition of 100 µl cold acetonitrile (100%) […]
(§27) prior to metabolite quantification by LC-MS/MS a nalysis. […]
For series [21] the following is noted: 0.98 µM, pH 7.2. This is another data set of the same source.
Protocol: Liver microsomal stability
as §1, §2, §3, §4, §5, §6, §7, §8, §9, §10, §11, §12, §13, §26, §27
A short description of series [22]: in vitro. Conditions: human, plasma.
Setting [23] is: 50 mg/kg oral once-daily weeks 4-8, intranasal infection, BALB/c.
The mark [24] stands for this setting: 30mg/kg oral once-daily weeks 4-8, intranasal infection, BALB/c.

≈ marks a conversion by molar mass, not a printed value. Where two headings read alike, the source gives them in different places. A value given as a limit tells only on which side of the number the result lay.

On to `Cc1nonc1CC(=O)N1CCC(n2nnc(-c3ccc(F)cc3)n2)CC1` [V-59, 1-(4-(5-(4-fluorophenyl)-2H-tetrazol-2-yl)piperidin-1-yl)-2-(4-methyl-1,2,5-oxadiazol-3-yl)ethan-1-one], for which the concentration giving a half-maximal response (EC50) in series [1] was 0.3 µM; in series [2] (read-out: EC50 in cholesterol media), 0.7 µM; in series [3], over 50 µM; in series [4], over 50 µM. For the same compound, the cAMP induction is recorded as ~ 70 fold in series [5] and ~ 140 fold in series [5] (CompFull strain, 24 hours). Moreover, in series [6], the “decrease of 14CO2 release from [4-14C]-cholesterol” value is ~ 89%. Moreover, the “14CO2 release from [4-14C]-cholesterol” value in series [6] (CompD204 strain lacking cyclase domain) is given as “did not prevent”; in series [6] (CompFull strain) it was “inhibited”. Further, in [7], the “14CO2 released from breakdown of [U-14C]-palmitate” value is reported as “no measurable effect”. The results for the “decrease of prpD'::GFP signal” value in [8] (CompFull strain) and in series [8] (WT) were ~ 90% and ~ 50%, respectively. Also, the “prpD'::GFP signal” value in series [8] (ΔRv1625c or CompD204 strains, cholesterol media or macrophage infection) is “did not impact”. The “reduction in lung CFUs” value in series [9] (setting [23]) is ~ 0.4 log10; in [10] it was ~ 0.5 log10. For the same compound, the “reduction of extent of lung inflammation” value in series [9] (setting [23]) is ~ 50%. Also, the ER mouse in series [11] was found to be 0.3. Further, in [12], the ER human amounted to 0.3. For the same compound, the “intracellular survival of MKR strain” value in series [13] is recorded as “selectively reduced intracellular survival”. The CC50 at 72 h in series [14] and in series [15] was over 20 µM each time. Besides, the fraction unbound at 4 h in series [16] is 0.173. In series [17], this compound registered an IC50 at 10 min of over 30 µM. Besides, the concentration in solution in series [18] (solubility at 24 h) was 4.63 µM (≈ 1.72 µg/mL). The compound further returned an IC50 in [19] of 8.9 µM.
For the compound `Cc1nonc1CC(=O)N1CCC(c2nc(-c3ccc(F)cc3)no2)CC1` [mCIS635], the EC50 is 0.27 µM in series [1], 0.15 µM in [2] (read-out: Cholesterol EC50), over 50 µM in [3] and over 50 µM in [4]. The same compound returned an ER mouse in [11] of 0.4. The compound also returned an ER human in series [12] of 0.3. Besides, the CC50 at 72 h in [14] and in series [15] was over 20 µM throughout. In [16], this compound gave a fraction unbound at 4 h of 0.056. In addition, the half-inhibitory concentration (IC50) at 10 min in series [17] is over 50 µM. The same compound showed a solubility at 24 h in series [18] of 34.4 µM (≈ 12.8 µg/mL). In addition, in [19], the concentration for half-maximal inhibition (IC50) amounted to 9.5 µM.
With `Cn1ncnc1CC(=O)N1CCC(c2nc(-c3ccc(Cl)c(Cl)c3)no2)CC1` [mCLB073, 1-(4-(3-(3,4-dichlorophenyl)-1,2,4-oxadiazol-5-yl)-1-piperidinyl)-2-(2-methyl-2H-1,2,4-triazol-3-yl)-1-ethanone], the EC50 is 1.2 µM in [1], 0.027 µM in series [2] (read-out: Cholesterol EC50), over 50 µM in series [3] and over 50 µM in series [4]. Further, in series [5] (Figs 3B and S2C), the cAMP synthesis entry is “activates cAMP synthesis”. Moreover, the “decrease of extent of lung pathology” value in series [9] (setting [24]) is listed as ~ 45%. Further, the “reduction in lung CFUs” value in [9] (setting [24]) was ~ 0.4 log10; in [9] (mouse, in vivo) it was ~ 0.4 log10. Further, the “bacterial burden in the lungs when added to a sub-optimal dose of rifampicin” value in series [9] (mouse, in vivo) was “did not increase the bacterial burden”. In series [11], this compound had an ER mouse of 0.3. Also, in [12], the ER human worked out at 0.3. The same compound registered an ER rat in [20] of 0.2. This compound registered an ER dog in series [21] of 0.3. The CC50 at 72 h in series [14] and in series [15] was over 20 µM in each case. Besides, the fraction unbound at 4 h in [16] was 0.037; in [22], 0.024. Besides, the half-inhibitory concentration (IC50) at 10 min in series [17] is over 50 µM. For the same compound, in series [18], the solubility at 24 h stood at 160 µM (≈ 67.4 µg/mL). This compound yielded an IC50 in series [19] of 13.8 µM.
Take `Cn1ncnc1CC(=O)N1CC2CC1CC2c1nc(-c2ccc(Cl)c(F)c2)no1` (centres unmarked) [mCLF178]: the half-maximal effective concentration (EC50) is over 20 µM in series [1], 0.083 µM in series [2] (read-out: Cholesterol EC50) and over 50 µM in series [3]. Besides, the ER mouse in [11] was 0.3. The compound also showed an ER human in [12] of 0.3. The same compound registered an ER rat in series [20] of 0.2. In addition, in series [21], the ER dog is on record as 0.3. In addition, the CC50 at 72 h in series [14] and in series [15] was over 20 µM in each case. The fraction unbound at 4 h in [16] is 0.116; in series [22] it was 0.111. Besides, the IC50 at 10 min in series [17] was over 30 µM. Besides, in [18], the solubility at 24 h is 186 µM (≈ 77.5 µg/mL). The same compound registered a half-inhibitory concentration (IC50) in series [19] of 22.9 µM.
